The test system of one data set is CYP2D6. The data set is described as follows: in vivo. The settings on record: uPA(+/+)/SCID, po. As to the method: As for the chimeric mice, chimeric mice produced in PhoenixBio Co., Ltd. were used. To be more specific, 3 mice in which human hepatocytes were engrafted and proliferated in the mouse liver were produced by transplanting human hepatocytes (BD51, purchased from BD Gentist Inc.) into the spleen of uPA(+/+)/SCID mice, which are mice having hepatic impairment and immunodeficiency.
Paroxetine was dissolved in Milli-Q water (using a bath-type ultrasonic device) and prepared to give a final concentration of 6 mg/ml. The prepared drug was intraperitoneally administered to the mice at a dose of 5 μl/g b.w. (30 mg/kg b.w./day).
To the high-replacement chimeric mice, paroxetine was intraperitoneally administered for 3 days. Then, in the same manner as in Example 1, 5 compounds were simultaneously administered orally by gavage, the blood was collected over time, and the serum was stored.
The determination and analysis of drugs in the serum were carried out in the same manner as in Example 1.
The determined values of the drug concentration in the serum were calculated from the peak area ratio obtained by the LC-MS/MS measurement of the samples for addition calibration curve. […] From the graphs, Cmax, t1/2 and AUC were analyzed.

The conditions of data set [1]: mouse, in vivo; for AUC: uPA(+/+)/SCID. An excerpt: (§1) As for the chimeric mice, chimeric mice produced by Hiroshima Prefectural Institute of Industrial Science and Technology or PhoenixBio Co., Ltd. were used. To be more specific, mice in which human hepatocytes were engrafted and proliferated in the mouse liver were produced by transplanting human hepatocytes (IVT079, purchased from In Vitro Technology Inc., or BD51, purchased from BD Gentest Inc.) into the spleen of uPA(+/+)/SCID mice, which are mice having hepatic impairment and immunodeficiency. Mice in which 70% or more of the mouse liver had been replaced with human hepatocytes (high-replacement chimeric mice) and low-replacement chimeric mice in which although human hepatocytes had been transplanted, the replacement ratio was almost 0%, or untransplanted mice (mice with no replacement) were used (3 mice in each group). Further, as a control, 3 uPA(−/−)/SCID mice were used.
(§2) The concentration for administration of tolbutamide which is a standard drug for CYP2C9 was […]., and 4.175 mg of tolbutamide was weighed out and suspended in 1 ml of a CMC liquid in an agate mortar, and a 4.175 mg/ml suspension which is 5 times as high as the concentration for administration was prepared.
(§3) To the high-replacement chimeric mice, low-replacement chimeric mice (or mice with no replacement) and uPA(−/−)/SCID mice (3 mice in each group), 5 compounds were simultaneously administered orally by gavage or intravenously. The blood was collected from the tail vein of each mouse in an amount of 15 μl each at 0.25 (only intravenous administration), 0.5, 1, 2, 4 (only oral administration) and 8 hours after administration. Then, the blood was centrifuged at 3,500 rpm for 5 minutes, and the serum (supernatant) was collected and stored in a freezer at −30° C.
(§4) The serum samples were transported to Sumika Chemical Analysis Service, Ltd. while keeping it in dry ice, and subjected to measurement by LC-MS/MS according to the following procedure.
(§5) With regard to a liquid chromatograph, SIL-HTC and LC-10A series (Shimadzu Corporation) were used, and as a column, Synergi 4μ Polar-RP 80A, 150 mm (length)×2.00 mm (inner diameter), 4 μm (Phenomenex Inc.) was used at 30° C. As a mobile phase, methanol/a 10 mmol/l ammonium acetate solution/acetic acid (700/300/2, v/v/v) was used, and a flow rate was set at 0.2 ml/min. An injection volume was set at 2 μl, a measurement time was set at 10 min, and the temperature of an autosampler was set at 4° C. As a mass spectrometer, Tandem Mass Spectrometer API 4000 (Applied Biosystems/MDS SCIEX Inc.) was used. As API interface, Turbo V (ESI probe) was used, and as Ionization mode, Positive ion detection mode was used.
To Eppendorf tubes in which 5 μl of samples to be measured (serum) were contained, 100 μl of methanol was added, and 10 μl of 1 μg/ml of I.S. standard solution was added thereto, and then, the mixtures were thoroughly mixed by an ultrasonic treatment and a vortex mixer. […]
(§6) The determined values of the drug concentration in the serum were calculated from the peak area ratio obtained by the LC-MS/MS measurement of the samples for addition calibration curve. […] From the graphs, the peak serum concentration (Cmax), half-life (t1/2), area under the curve (AUC), bioavailability and clearance were analyzed, and pharmacokinetics in human was predicted.

A short description of a further data set: in vivo. The settings on record: for t 1/2 Distribution phase / half-life / AUC / bioavailability / Cmax: mouse, in vivo.
Description: as §1, §2, §3, §4, §5
To Eppendorf tubes in which 5 μl of samples to be measured (serum) were contained, 100 μl of methanol was added, and 10 μl of 1 μg/ml of I.S. standard solution was added thereto, and then, the mixtures were thoroughly mixed by an ultrasonic treatment and a vortex mixer. The resulting mixtures were centrifuged (15,000 rpm, 5 min, room temperature), and the resulting supernatants were subjected to centrifugal filtration (10,000 rpm, 2 min, room temperature) with a filter, and the resulting filtrates were used as injection samples for LC-MS/MS.
as §6

[2] abbreviates: mouse, t 1/2 Distribution phase.
Where [3] appears, read: uPA(+/+)/SCID, po, t 1/2 Distribution phase.
The mark [4] stands for this setting: uPA(−/−)/SCID, iv, t 1/2 Distribution phase.
The mark [5] stands for this setting: uPA(−/−)/SCID, iv, t 1/2 Elimination phase.

Read-outs that look alike come from different tables or passages of the source.

A word on the AUC: it is concentration integrated over time. One may read the half-life as the time needed for the level to fall by half in the phase considered. In general, bioavailability refers to the share of a dose that reaches the circulation, judged against a reference dose that is usually intravenous. One may read the Cmax as the highest concentration seen after dosing.

In the case of `Cn1c(=O)c2c(ncn2C)n(C)c1=O` [Caffeine, caffeine], the AUC in the data set with CYP2D6 (mouse) came to 97100 ng·h/mL; in data set [1], 65700 ng·h/mL; in “in vivo” (uPA(−/−)/SCID, iv) it was 4070 ng·h/mL; in the data set “in vivo” (uPA(−/−)/SCID, po), 33200 ng·h/mL. In addition, the half-life is 3.4 h in the data set with CYP2D6 (setting [2]); 0.809 h in the data set “in vivo” (uPA(+/+)/SCID, iv, t 1/2 Distribution phase); 3.45 h in “in vivo” (setting [3]); 0.609 h in the data set “in vivo” (setting [4]); 0.505 h in the data set “in vivo” (setting [5]); 0.82 h in the data set “in vivo” (uPA(−/−)/SCID, po, t 1/2 Elimination phase). Also, in data set [1], the “AUC in high-replacement chimeric mice compared with low-replacement chimeric mice” value is given as “significantly lower”. Moreover, the “t 1/2 Distribution phase” value in the data set “in vivo” (uPA(+/+)/SCID, iv) is on record as 0.437^#3 hr; in “in vivo” (uPA(+/+)/SCID, po), 2.16^#3 hr. In addition, the bioavailability in the data set “in vivo” (uPA(−/−)/SCID, po) was determined as 81.6%. Moreover, the Cmax in “in vivo” (uPA(−/−)/SCID, po) was found to be 8800 ng/mL.
Take `COc1ccc2c(c1)[C@]13CCCC[C@@H]1[C@H](C2)N(C)CC3` [Dextromethorphan, dextromethorphan]: the AUC was 358 ng·h/mL with CYP2D6 (in vivo); 4030 ng·h/mL in the data set “in vivo” (uPA(+/+)/SCID, iv, intravenous administration, high-replacement chimeric mouse, donor IVT079); 4600 ng·h/mL in “in vivo” (uPA(+/+)/SCID, iv, intravenous administration, low-replacement chimeric mouse, donor IVT079); 1020 ng·h/mL in the data set “in vivo” (uPA(+/+)/SCID, po, oral administration, high-replacement chimeric mouse, donor IVT079); 3650 ng·h/mL in “in vivo” (uPA(+/+)/SCID, po, oral administration, low-replacement chimeric mouse, donor IVT079); 2610 ng·h/mL in the data set “in vivo” (uPA(−/−)/SCID, iv, intravenous administration, uPA(−/−)/SCID mouse). Also, the exposure (AUC) in the data set “in vivo” (uPA(−/−)/SCID, po, oral administration, uPA(−/−)/SCID mouse) worked out at 580 ng·h/mL. In addition, the Cmax with CYP2D6 (in vivo, 30 mg/kg/day) was 156 ng/mL; in “in vivo” (uPA(+/+)/SCID, po, oral administration, high-replacement chimeric mouse, donor IVT079, serum), 276 ng/mL; in “in vivo” (uPA(+/+)/SCID, po, oral administration, low-replacement chimeric mouse, donor IVT079, serum), 836 ng/mL; in the data set “in vivo” (uPA(−/−)/SCID, po, oral administration, uPA(−/−)/SCID mouse, serum, dose per drug in table), 130 ng/mL. Also, the half-life with CYP2D6 (in vivo, t 1/2 Distribution phase, high-replacement chimeric mouse, donor BD51, inhibitor paroxetine, time window per footnote) is 1.44 h; in the data set on CYP2D6 (in vivo, t 1/2 Elimination phase, high-replacement chimeric mouse, donor BD51, inhibitor paroxetine, time window per footnote) it was 5.29 h; in the data set “in vivo” (uPA(+/+)/SCID, iv, t 1/2 Distribution phase, intravenous administration, high-replacement chimeric mouse, donor IVT079, time window per footnote) it was 3.15 h; in “in vivo” (uPA(+/+)/SCID, iv, t 1/2 Distribution phase, intravenous administration, low-replacement chimeric mouse, donor IVT079, time window per footnote) it was 0.414 h; in the data set “in vivo” (uPA(+/+)/SCID, iv, t 1/2 Elimination phase, intravenous administration, high-replacement chimeric mouse, donor IVT079, 2-8 hr) it was 1.23 h; in “in vivo” (uPA(+/+)/SCID, iv, t 1/2 Elimination phase, intravenous administration, low-replacement chimeric mouse, donor IVT079, 2-8 hr) it was 1.5 h. In addition, the half-life in “in vivo” (uPA(+/+)/SCID, po, t 1/2 Distribution phase, oral administration, high-replacement chimeric mouse, donor IVT079, time window per footnote) is 1.15 h; in “in vivo” (uPA(+/+)/SCID, po, t 1/2 Distribution phase, oral administration, low-replacement chimeric mouse, donor IVT079, time window per footnote) it was 2.88 h; in “in vivo” (uPA(+/+)/SCID, po, t 1/2 Elimination phase, oral administration, high-replacement chimeric mouse, donor IVT079, time window per footnote), 10.4 h; in “in vivo” (uPA(+/+)/SCID, po, t 1/2 Elimination phase, oral administration, low-replacement chimeric mouse, donor IVT079, time window per footnote) it was 9.98 h; in “in vivo” (uPA(−/−)/SCID, iv, t 1/2 Distribution phase, intravenous administration, uPA(−/−)/SCID mouse, time window per footnote) it was 0.47 h; in “in vivo” (uPA(−/−)/SCID, po, t 1/2 Distribution phase, oral administration, uPA(−/−)/SCID mouse, time window per footnote), 2.45 h. Moreover, in “in vivo” (donor hepatocytes IVT079), the “AUC in high-replacement chimeric mice compared with low-replacement chimeric mice” value is “significantly lower”. In addition, the bioavailability in “in vivo” (uPA(+/+)/SCID, po, high-replacement chimeric mouse, donor IVT079) is 2.53%; in the data set “in vivo” (uPA(+/+)/SCID, po, low-replacement chimeric mouse, donor IVT079) it was 7.93%; in the data set “in vivo” (uPA(−/−)/SCID, po, uPA(−/−)/SCID mouse), 2.22%.
As to `CC[C@H]1OC(=O)[C@H](C)[C@@H](O[C@H]2C[C@@](C)(OC)[C@@H](O)[C@H](C)O2)[C@H](C)[C@@H](O[C@@H]2O[C@H](C)C[C@H](N(C)C)[C@H]2O)[C@](C)(O)C[C@@H](C)C(=O)[C@H](C)[C@@H](O)[C@]1(C)O` [Erythromycin, erythromycin], the AUC in data set [1] stood at 21300 ng·h/mL; in “in vivo” (uPA(−/−)/SCID, iv) it was 13800 ng·h/mL; in the data set “in vivo” (uPA(−/−)/SCID, po), 4080 ng·h/mL. Besides, the “t 1/2 Distribution phase” value in the data set “in vivo” (uPA(+/+)/SCID, po) is on record as 2.22^#3 hr. Further, the results for the half-life in “in vivo” (setting [3]), in the data set “in vivo” (setting [4]) and in the data set “in vivo” (setting [5]) were 4.38 h, 0.35 h and 1.1 h, respectively. Further, the bioavailability in the data set “in vivo” (uPA(−/−)/SCID, po) was 2.95%. In addition, the Cmax in “in vivo” (uPA(−/−)/SCID, po) was 1000 ng/mL.
`COc1ccc2[nH]c([S+]([O-])Cc3ncc(C)c(OC)c3C)nc2c1` (centres unmarked) [Omeprazole, omeprazole]: the AUC in the data set on CYP2D6 (mouse) came to 964 ng·h/mL; in data set [1] it was 322 ng·h/mL; in the data set “in vivo” (uPA(−/−)/SCID, iv) it was 840 ng·h/mL; in “in vivo” (uPA(−/−)/SCID, po) it was 114 ng·h/mL. The half-life in the data set with CYP2D6 (setting [2]) was 0.3 h; with CYP2D6 (mouse, t 1/2 Elimination phase) it was 1.55 h; in “in vivo” (uPA(+/+)/SCID, po, t 1/2 Elimination phase) it was 1.03 h; in “in vivo” (setting [4]), 0.24 h; in the data set “in vivo” (setting [5]), 0.971 h. The bioavailability in “in vivo” (uPA(−/−)/SCID, po) was 1.36%. Further, in “in vivo” (uPA(−/−)/SCID, po), the Cmax is 94 ng/mL.

These data come from US20090047655A1, “Method Of Screening Candidate Drug” (priority 2004, published 2009).
